From US6310247A, “7-aryl-6(Z)-heptatrienoic acid retinamides” (Hoffmann-LA Roche Inc., priority 1999, dated 2001)

Tested on: NMU-induced mammary tumors
Test: NMU-induced mammary tumors in Sprague-Dawley rats
Assay type: in vivo, rat
Conditions: for Effect on tumors (in words): i.p., tumor size and number; for Number of first tumors with volume relative to day 0: progressed > 100% / Number of first tumors with volume relative to day 0: regressed > 50% / Number of first tumors with volume relative to day 0: static / Number of first tumors: total: 25 mg/kg i.p. q.d.; for No. of first tumors regressing to unpalpable/no. palpable at day 0: 25 mg/kg i.p., 5×/wk for 4 weeks
Text: Thus, compounds of formula 1 have efficacy against established nitrosomethylurea (NMU)-induced mammary tumors in rats. The induction of invasive mammary-tissue specific tumors in rats by NMU (Gullino et al., 1975) produces primarily estrogen-dependent carcinomas (Arafah et al., 1980) within as little as 4 weeks following a single, low-toxicity dose (McCormick et al., 1981) and results in a high percentage of tumor induction. The properties of the tumors induced in rats by NMU in this experimental model are representative of human mammary carcinoma and are invasive (McCormick et al., 1981).
Materials and Methods, 750 virgin female Sprague-Dawley rats 26 to 32 days of age (Harlan Laboratories) were housed in polycarbonate cages (3 rats/cage) and provided food and water ad libitum. Mammary tumors were induced essentially as previously described (Gullino et al., 1975 and McCormick et al., 1981). At the age of 50+/-3 days, each animal received a single dose (50 mg/kg body weight) of NMU (Sigma, St. Louis, Mo.) in 0.85% sodium chloride acidified to pH 5.0 with acetic acid. The carcinogen was administered with a 26 g needle i.v. via the tail vein in a 0.5 ml volume.
Rats were checked weekly starting 4 weeks after NMU administration for palpable tumors and those bearing at least one mammary tumor, palpable for 11 days or less, were entered into study on day 61 post-NMU administration. Fifteen animals were entered into treatment or control groups. Tumor diameters were measured weekly with calipers along their long and short axes and tumor volume was calculated from the ellipsoid formula, (D×d^2)/2, where D is the long diameter and d is the short diameter. The days on which new palpable tumors arose or on which established tumors disappeared were noted along with anatomical position. Tumors which appeared in the same anatomical location at which a tumor had previously completely regressed were considered to be regrowths of the same tumor. Rats which developed ulcerations of tumors were immediately terminated from studies. All animals entered into groups were weighed daily on weekdays for 6 weeks.
N-(4-hydroxyphenyl)-(2E,4E,6Z)-7-[3,5-bis(trifluoromethyl)phenyl]-3,7-dimethyl-2,4,6-heptatrienamide was prepared in 4% ethanol, 8% PEG400, 7.2% Cremophor RH40 and 80% D5W and administered intraperitoneally in a 2.8 ml volume via a 21 g needle 5 times per week, q.d., for 4 weeks.
For treatment of NMU-induced tumors in rats, solutions of the test compound N-(4-hydroxyphenyl)-(2E,4E,6Z)-7-[3,5-bis(trifluoromethyl)phenyl]-3,7-dimethyl-2,4,6-heptatrienamide were prepared daily in 4% ethanol, 8% PEG400, 7.2% Cremophor RH40 and 80% D5W.

Structure (SMILES): C/C(=C/C=C/C(C)=C/C(=O)Nc1ccc(O)cc1)c1cc(C(F)(F)F)cc(C(F)(F)F)c1 [N-(4-hydroxyphenyl)-(2E,4E,6Z)-7-[3,5-bis(trifluoromethyl)phenyl]-3,7-dimethyl-2,4,6-heptatrienamide]
- Rats treated that succumbed to toxicity (25 mg/kg/2.8 ml i.p. q.d., 5×/wk for 4 wks): 3 of 15
- Effect on tumors (in words): decrease both tumor size and tumor number
- Effect on tumors (in words) (listed as the tested compound): capable of causing existing tumors to shrink, and, in addition, causes the number of tumors to decrease by eliminating first tumors and preventing additional tumors from arising
- Number of first tumors with volume relative to day 0: progressed > 100% (week 1, 5×/wk for 4 wks): 4
- Number of first tumors with volume relative to day 0: regressed > 50% (week 1, 5×/wk for 4 wks): 10
- Number of first tumors with volume relative to day 0: static (week 1, 5×/wk for 4 wks): 5
- Number of first tumors: total (week 1, 5×/wk for 4 wks): 19
- No. of first tumors regressing to unpalpable/no. palpable at day 0 (week 1, ** p < 0.005 vs vehicle): 7/20
- Number of first tumors with volume relative to day 0: progressed > 100% (week 2, 5×/wk for 4 wks): 6
- Number of first tumors with volume relative to day 0: regressed > 50% (week 2, 5×/wk for 4 wks): 8
- Number of first tumors with volume relative to day 0: static (week 2, 5×/wk for 4 wks): 5
- Number of first tumors: total (week 2, 5×/wk for 4 wks): 19
- No. of first tumors regressing to unpalpable/no. palpable at day 0 (week 2, * p < 0.05 vs vehicle): 5/19
- Number of first tumors with volume relative to day 0: progressed > 100% (week 3, 5×/wk for 4 wks): 6
- Number of first tumors with volume relative to day 0: regressed > 50% (week 3, 5×/wk for 4 wks): 6
- Number of first tumors with volume relative to day 0: static (week 3, 5×/wk for 4 wks): 3
- Number of first tumors: total (week 3, 5×/wk for 4 wks): 19
- No. of first tumors regressing to unpalpable/no. palpable at day 0 (week 3): 3/19
- No. of first tumors regressing to unpalpable/no. palpable at day 0 (week 4, * p < 0.05 vs vehicle): 4/19
- No. of first tumors regressing to unpalpable/no. palpable at day 0 (week 5): 4/18
- No. of first tumors regressing to unpalpable/no. palpable at day 0 (week 6, * p < 0.05 vs vehicle): 5/18
